From ChEMBL document CHEMBL3877252, “Fluorescein hydrazones: A series of novel non-intercalative topoisomerase IIα catalytic inhibitors induce G1 arrest and apoptosis in breast and colon cancer cells” (Eur J Med Chem, 2017)

Key:
Bos taurus = species on record: Bos taurus; experiment: Displacement of ethidium bromide from calf thymus DNA measured after 30 mins by fluorescence quenching assay
[1] = Cell cycle arrest in human T47D cells assessed as accumulation at G2/M phase at 0.5 uM after 24 hrs by DAPI staining-based cell analyzer (reference value: 13%); type: functional
[2] = target: DNA topoisomerase 2-alpha (Homo sapiens) (UniProt P11388); experiment: Poison activity at topoisomerase-2 alpha in human HCT15 cells assessed as DNA damage by measuring DNA tail length at 5 uM measured after 24 hrs by alkaline comet assay; type: cell-based; conditions: HCT-15
Chain of DNA topoisomerase 2-alpha (Homo sapiens) (P11388 whole entry): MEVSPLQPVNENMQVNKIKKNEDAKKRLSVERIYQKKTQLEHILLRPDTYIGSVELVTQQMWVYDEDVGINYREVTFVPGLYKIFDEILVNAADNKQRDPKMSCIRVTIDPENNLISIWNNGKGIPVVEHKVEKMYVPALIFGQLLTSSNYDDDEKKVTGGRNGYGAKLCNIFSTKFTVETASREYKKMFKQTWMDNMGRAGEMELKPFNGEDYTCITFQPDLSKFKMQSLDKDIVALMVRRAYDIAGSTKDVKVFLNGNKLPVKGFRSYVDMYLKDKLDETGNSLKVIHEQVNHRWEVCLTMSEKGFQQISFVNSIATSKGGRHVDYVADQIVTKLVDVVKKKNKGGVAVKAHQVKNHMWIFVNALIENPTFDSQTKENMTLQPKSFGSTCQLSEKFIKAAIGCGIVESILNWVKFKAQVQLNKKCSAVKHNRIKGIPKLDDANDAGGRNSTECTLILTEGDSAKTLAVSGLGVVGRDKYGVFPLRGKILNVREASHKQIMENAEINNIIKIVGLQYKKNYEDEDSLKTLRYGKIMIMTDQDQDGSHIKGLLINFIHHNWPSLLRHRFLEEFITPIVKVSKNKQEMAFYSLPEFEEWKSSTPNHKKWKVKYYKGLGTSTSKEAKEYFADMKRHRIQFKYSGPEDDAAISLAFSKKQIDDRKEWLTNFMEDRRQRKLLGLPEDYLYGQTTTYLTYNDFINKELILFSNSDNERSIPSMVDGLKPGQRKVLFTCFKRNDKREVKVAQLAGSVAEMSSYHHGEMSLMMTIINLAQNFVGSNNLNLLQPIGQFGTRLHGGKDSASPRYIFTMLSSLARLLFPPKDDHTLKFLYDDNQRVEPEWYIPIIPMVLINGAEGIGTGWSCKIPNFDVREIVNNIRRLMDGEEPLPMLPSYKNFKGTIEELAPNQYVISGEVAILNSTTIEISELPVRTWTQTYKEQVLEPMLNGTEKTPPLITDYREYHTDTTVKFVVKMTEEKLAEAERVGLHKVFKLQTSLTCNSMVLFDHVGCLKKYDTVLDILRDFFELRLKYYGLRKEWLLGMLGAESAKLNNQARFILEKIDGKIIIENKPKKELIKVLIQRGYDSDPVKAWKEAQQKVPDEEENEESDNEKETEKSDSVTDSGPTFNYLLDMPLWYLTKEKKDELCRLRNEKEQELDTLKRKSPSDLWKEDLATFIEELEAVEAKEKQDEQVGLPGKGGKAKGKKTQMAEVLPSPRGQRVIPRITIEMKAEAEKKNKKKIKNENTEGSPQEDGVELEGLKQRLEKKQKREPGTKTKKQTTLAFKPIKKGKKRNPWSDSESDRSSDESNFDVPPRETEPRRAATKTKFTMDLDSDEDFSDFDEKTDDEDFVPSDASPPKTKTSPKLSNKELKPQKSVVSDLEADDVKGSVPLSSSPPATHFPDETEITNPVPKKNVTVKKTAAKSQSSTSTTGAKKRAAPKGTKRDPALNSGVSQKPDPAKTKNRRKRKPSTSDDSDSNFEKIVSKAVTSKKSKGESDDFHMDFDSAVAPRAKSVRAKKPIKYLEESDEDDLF

[3] = Antiproliferative activity against human HCT15 cells measured after 72 hrs by CCK8 assay; type: functional, cell-based; conditions: HCT-15, 72 h
[4] = Cell cycle arrest in human HCT15 cells assessed as accumulation at G1 phase at 0.5 uM after 20 hrs by DAPI staining-based cell analyzer (reference value: 40%); type: functional; conditions: HCT-15
[5] = Cell cycle arrest in human HCT15 cells assessed as accumulation at G2/M phase after 20 hrs by DAPI staining-based cell analyzer; type: functional; conditions: HCT-15
[6] = Cell cycle arrest in human HCT15 cells assessed as accumulation at S phase at 1 uM after 20 hrs by DAPI staining-based cell analyzer (reference value: 34%); type: functional; conditions: HCT-15
[7] = Cell cycle arrest in human T47D cells assessed as accumulation at S phase at 0.5 uM after 24 hrs by DAPI staining-based cell analyzer (reference value: 26%); type: functional
[8] = target: DNA topoisomerase 2-alpha (Homo sapiens) (UniProt P11388); experiment: Poison activity at topoisomerase-2 alpha in human HCT15 cells assessed as DNA damage by measuring DNA tail length at 10 uM measured after 24 hrs by alkaline comet assay; type: cell-based; conditions: HCT-15
[9] = Cell cycle arrest in human HCT15 cells assessed as accumulation at G1 phase at 1 uM after 20 hrs by DAPI staining-based cell analyzer (reference value: 40%); type: functional; conditions: HCT-15
[10] = Antiproliferative activity against human T47D cells measured after 72 hrs by CCK8 assay; type: functional, cell-based
[11] = Cell cycle arrest in human HCT15 cells assessed as accumulation at G2/M phase at 1 uM after 20 hrs by DAPI staining-based cell analyzer (reference value: 13%); type: functional; conditions: HCT-15
[12] = Cell cycle arrest in human T47D cells assessed as accumulation at G2/M phase after 24 hrs by DAPI staining-based cell analyzer; type: functional
[13] = Cell cycle arrest in human T47D cells assessed as accumulation at G2/M phase at 1 uM after 24 hrs by DAPI staining-based cell analyzer (reference value: 15%); type: functional
[14] = Cell cycle arrest in human T47D cells assessed as accumulation at G1 phase at 0.5 uM after 24 hrs by DAPI staining-based cell analyzer (reference value: 51%); type: functional
[15] = Cell cycle arrest in human HCT15 cells assessed as accumulation at G2/M phase at 0.5 uM after 20 hrs by DAPI staining-based cell analyzer (reference value: 13%); type: functional; conditions: HCT-15
[16] = target: DNA topoisomerase 2-alpha (Homo sapiens) (UniProt P11388); experiment: Poison activity at topoisomerase-2 alpha in human T47D cells assessed as DNA damage by measuring DNA tail length at 10 uM measured after 24 hrs by alkaline comet assay; type: cell-based
[17] = Antiproliferative activity against human DU145 cells measured after 72 hrs by CCK8 assay; type: functional, cell-based; conditions: DU-145, 72 h
[18] = target: DNA topoisomerase 2-alpha (Homo sapiens) (UniProt P11388); experiment: Poison activity at topoisomerase-2 alpha in human T47D cells assessed as DNA damage by measuring DNA tail length at 5 uM measured after 24 hrs by alkaline comet assay; type: cell-based
[19] = Cell cycle arrest in human T47D cells assessed as accumulation at G1 phase at 1 uM after 24 hrs by DAPI staining-based cell analyzer (reference value: 51%); type: functional
[20] = Antiproliferative activity against human MCF7 cells measured after 72 hrs by CCK8 assay; type: functional, cell-based; conditions: MCF7, 72 h
[21] = Cell cycle arrest in human HCT15 cells assessed as accumulation at S phase at 0.5 uM after 20 hrs by DAPI staining-based cell analyzer (reference value: 34%); type: functional; conditions: HCT-15
[22] = Cell cycle arrest in human T47D cells assessed as accumulation at S phase at 1 uM after 24 hrs by DAPI staining-based cell analyzer (reference value: 26%); type: functional

For `COc1cc(NS(C)(=O)=O)ccc1Nc1c2ccccc2nc2ccccc12`, the inhibition (Bos taurus) was “Dose-dependent effect”.

Molecule `COc1cc([C@@H]2c3cc4c(cc3[C@@H](O[C@@H]3O[C@@H]5CO[C@@H](C)O[C@H]5[C@H](O)[C@H]3O)[C@H]3COC(=O)[C@H]23)OCO4)cc(OC)c1O` [ETOPOSIDE] has an Activity [1] of 31%, an Activity [2] of 37.5 pixel and an IC50 [3] of 1.27 µM. For the same molecule, the Activity [4] was 21%, the Activity [5] was “Dose-dependent effect” and the Activity [6] was 25%. For the same molecule, the Activity [7] was 24%, the Activity [8] was 46.3 pixel and the Activity [9] was 17%. The IC50 [10] was 4.85 µM, the Activity [11] was 32% and the Activity [12] was “Dose-dependent effect”. The Activity [13] was 33%, the Activity [14] was 39% and the Activity [15] was 29%. It also gave an Activity [16] of 66.2 pixel, an IC50 [17] of 2.19 µM and an Activity [18] of 62.7 pixel. For the same molecule, the Activity [19] was 35%, the IC50 [20] was 35.6 µM and the Activity [21] was 26%. For the same molecule, the Activity [22] was 22%.
